Values of other authors, collected in patent US7285553B2, “Serotonergic 5HT7 receptor compounds for treating ocular and CNS disorders” (Alcon Manufacturing, Ltd., priority 1998, dated 2007).
Like-named read-outs stand apart in the source and are kept apart here.

Experiments:
IOP [1] = conditions: glaucomatous monkeys
rabbit eye = conditions: for IOP: rabbits; for intraocular pressure in the anterior chamber of the eye: topically applied to the rabbit eye
IOP [2] = test system: IOP
IOP [3] = test system: IOP; remark: listed apart in the source

COc1ccccc1N1CCN(CCCNc2c(C)c(=O)n(C)c(=O)n2C)CC1 [5-methylurapidil]
IOP (IOP [1]): lowered IOP

CCCN(CCC)C1CCc2cccc(O)c2C1 (centres unmarked) [8-hydroxy DPAT]
IOP (rabbit eye): lower IOP

NCCc1c[nH]c2ccc(C(N)=O)cc12 [Example 5-CT, 5-carboxamidotryptamine]
intraocular pressure in the anterior chamber of the eye (rabbit eye): raise intraocular pressure

NCCc1c[nH]c2ccc(O)cc12 [Example 5HT, 5-hydroxy tryptamine]
intraocular pressure in the anterior chamber of the eye (rabbit eye): raise intraocular pressure
IOP (IOP [2]; intracamerally): raised IOP
blood-aqueous barrier (IOP [2]; intracamerally): caused breakdown of the blood-aqueous barrier
IOP (IOP [2]; topically applied): lowers IOP

O=C(c1ccc(F)cc1)C1CCN(CCn2c(=O)[nH]c3ccccc3c2=O)CC1 [Ketanserin]
IOP (rabbit eye): lowers IOP
IOP (IOP [3]; man): lowers IOP

c1ccc2c(c1)OC[C@H](CNCCCOc1ccc3c(c1)OCO3)O2 [MKC-242]
IOP (rabbit eye): lower IOP

CC[C@@H](CO)NC(=O)[C@@H]1C=C2c3cccc4c3c(cn4C)C[C@H]2N(C)C1 [Methysergide]
IOP (rabbit eye): lowered IOP

COc1cccc(CCc2ccccc2OCC(CN(C)C)OC(=O)CCC(=O)O)c1 (centres unmarked) [Saprogrelate]
IOP (rabbit eye; dosed topically or orally): lowers IOP
IOP (IOP [3]; man, dosed topically or orally): lowers IOP

CNCCC(Oc1ccc(C(F)(F)F)cc1)c1ccccc1 (centres unmarked) [fluoxetine]
IOP (IOP [3]; human subjects, oral administration): raises IOP
